This is an account of results in PubChem BioAssay AID977606 (Broad Institute, 2014).

Where “and” joins values, the source holds several entries; their conditions need not be identical. Equal values may be shown once. Calls of active or inactive are those of the source. The rule behind the calls is not given here.

The subject of the test is INS-1E Gaussia luciferase insulin secretion, no glucose, luminescence. Nature of the test: insulin secretion activators without glucose, dose response, counter-screen for glucose-dependent insulin secretion activators, cell-based, INS-1E, Gaussia luciferase, luminescence, cherry-pick (AID 977606).
For `Cc1ccc(SC[C@H](C)CN2CC[C@H](C(C)(C)C)CCC2=O)cc1`, the AC40 was 4.93 µM.

Take `Cc1ccc(S(=O)(=O)N2C[C@@H]3N[C@H](C2)C3c2ccc(/C=C/c3ccccc3)cc2)cc1` (some centres undefined): the AC40 was 4.56 µM.

Consider `O=C(Nc1ccc(C(F)(F)F)cc1)N1C[C@@H]2N[C@H](C1)C2c1ccc(-c2ccccc2)cc1` (some centres undefined), for which the AC40 was 8.46 µM.

In the case of `CCCCc1c(-c2ccccc2F)ncn1CCc1ccccc1OC`, the AC40 was 9.38 µM.

With `O=C(Nc1ccc(C(F)(F)F)cc1)N1[C@@H]2CNC[C@H]1C2c1ccc(/C=C/c2ccccc2)cc1` (some centres undefined), the AC40 was 7.54 µM.

Regarding `Cc1ccc(/C=N/NC(=O)COc2ccccc2-c2ccccc2)cc1`, the AC40 was 4.99 µM.

In the case of `COc1ccc(/C=N/Nc2nc(-c3ccc(Cl)cc3)cc(C(F)(F)F)n2)c(OC)c1`, the AC40 was 12.2 µM.

With `Clc1ccc(-c2ccnc(Oc3ccc4ccccc4c3)n2)cc1`, the AC40 was 7.79 µM.

Consider `CC(C)C[C@H](NC(=O)c1[nH]cnc1C(=O)N[C@@H](C)c1ccccc1)C(=O)OC(C)(C)C`, for which the AC40 is 20 µM.

For `Cc1c(C(=O)OCC(=O)N2CC(=O)Nc3ccccc32)oc2ccc(Br)cc12`, the AC40 was 5.24 µM.

Regarding `CCc1ccc(-c2c(C)sc(NC(=O)C3CCC3)c2C#N)cc1`, the AC40 was > 35 µM (inactive).

`CCN(Cc1ccccc1)S(=O)(=O)c1ccc(C(=O)N(CCCN(C)C)c2nc3cc(C)cc(C)c3s2)cc1`: the AC40 is 3.71 µM.

Consider `COc1ccc(NC(=O)Cn2cnc3c(cnn3-c3ccc(C)c(C)c3)c2=O)c(OC)c1`, for which the AC40 is 3.41 µM.

For the molecule `c1ccc(Oc2ccccc2-c2cc(NCCc3cccnc3)n3nccc3n2)cc1`, the AC40 is 13.1 µM.

In the case of `CC1(C(=O)NS(=O)(=O)c2ccccc2Cl)CCN1C(=O)C1(c2ccccc2)CCCC1` (centres undefined), the AC40 was 23.4 µM.

Consider `CCOC(=O)Nc1cccc(OCC(=O)Nc2ccc3c(c2)CCC3)c1`, for which the AC40 was 8.25 µM.

As for `Cc1ccc(C)c(OCC(=O)N/N=C/c2c(C)nn(-c3ccccc3)c2Cl)c1C`, the AC40 is 1.63 µM.

With `Cc1ncc(N=Nc2ccc(F)cc2)c(-c2ccc(Cl)cc2)n1`, the AC40 was 8.66 µM.

Take `Nc1nc(N)c2cc(Sc3ccc(Cl)cc3)ccc2n1`: the AC40 is 9.55 µM.

For `Cc1ccc2nc(-c3ccc(NC(=O)COC(=O)c4ccco4)cc3)sc2c1`, the AC40 is 3.8 µM.

Consider `O=C(Nc1ccc(C(F)(F)F)cc1)N1C[C@@H]2N[C@H](C1)C2c1ccc(/C=C/c2ccccc2)cc1` (some centres undefined), for which the AC40 is 5.24 µM and 0.87 µM.

As to `COc1ccc(C(C)NCCC(c2ccc(OC(C)C)cc2)c2ccccc2OC)cc1` (centres undefined), the AC40 is 4.99 µM.

On to `O=c1[nH]cnc2nc(-c3ccc(N(CCCl)CCCl)cc3)[nH]c12`, for which the AC40 is 4.26 µM.

Consider `CC(C)NC(=O)OC[C@H]1O[C@H](C#Cc2ccc(C(C)(C)C)cc2)C=C[C@H]1O`, for which the AC40 is 20.3 µM.

As to `COc1cc(NC(=O)c2cccc(C)c2)ccc1NC(=O)c1cc2ccccc2o1`, the AC40 was 2.21 µM.

`Cc1cc(C)c2nc(N(CCCN(C)C)C(=O)c3ccc4c(c3)CCCC4)sc2c1`: the AC40 is 7.77 µM.

Consider `COc1ccc(-c2ccc(C3[C@@H]4CN(Cc5cccc(OC)c5)C[C@H]3N4)cc2)cc1` (some centres undefined), for which the AC40 was 6.42 µM.

As for `Cc1cc(C)nc(NS(=O)(=O)c2ccc(N/C=C/C(=O)c3ccc(Cl)c(Cl)c3)cc2)n1`, the AC40 was 4.44 µM.

Turning to `CC(=O)Oc1ccc(Cl)cc1/C=C/c1ccc2ccccc2n1`, the AC40 is 9.46 µM.

Take `O=C(c1ccc(F)cc1)N1C[C@@H]2N[C@H](C1)C2c1ccc(/C=C/c2ccccc2)cc1` (some centres undefined): the AC40 is > 11 µM (inactive).

In the case of `CNC[C@H](CC1CCCCC1)NC[C@H](Cc1ccccc1)NCCC12CC3CC(CC(C3)C1)C2`, the AC40 is 4.43 µM.

In the case of `COc1cccc(OCc2nc3c4cnn(-c5ccccc5)c4ncn3n2)c1`, the AC40 was 6.42 µM.

For `COC(=O)c1ccc(C2C(Oc3ccc(OC)cc3)C(=O)N2CCc2ccc(F)cc2)cc1` (centres undefined), the AC40 was 6.79 µM.

On to `Cc1ccccc1-n1sc2cc(F)ccc2c1=O`, for which the AC40 is 0.539 µM.

For the molecule `CCCCCc1cc(=O)oc2c(C(CCN3CCCC(C)C3)c3ccc(OC)cc3)c(OC)cc(OC)c12` (centres undefined), the AC40 is 8.58 µM.

On to `CCN1CCN(Cc2ccc(NC(=O)c3cccc(-c4ccc5nc(NC(=O)C6CC6)sc5n4)c3)cc2C(F)(F)F)CC1`, for which the AC40 is 12 µM.

For the molecule `CN(C)c1ncnc2sc(-c3ccccc3)cc12`, the AC40 was 30.3 µM.

Turning to `O=c1c2ccccc2nc(-c2ccco2)n1/N=C/c1ccccc1O`, the AC40 was 11.7 µM.

Consider `COc1ccccc1C(=O)NC(=S)NC12CC3CC(CC(C3)C1)C2`, for which the AC40 was 7.67 µM.

With `CCN(Cc1ccccc1)S(=O)(=O)c1ccc(C(=O)Nc2nnc(C)o2)cc1`, the AC40 is 0.0558 µM.

As to `COc1ccc(C(=O)c2sc(Nc3ccccc3)nc2N)cc1OC`, the AC40 was 26.5 µM.

In the case of `Cc1cc(NC(=O)c2cc(-c3cccc(Cl)c3)on2)no1`, the AC40 was 20.7 µM.

For the molecule `CCC(C)c1ccccc1OCCCN(C)Cc1ccccc1` (centres undefined), the AC40 is 9.93 µM.

Regarding `COc1ccc(-c2ccc3c(N)c(C(=O)c4ccc(OC)c(OC)c4)sc3n2)cc1`, the AC40 was 6.27 µM.

As to `CC(C)(C)c1nc2ccc(Cl)cn2c1CC1CCCCC1`, the AC40 was 13.2 µM.

`Cc1cccc(C(C)C)c1NC(=O)COC(=O)c1cccc(S(=O)(=O)N2CCc3ccccc3C2)c1`: the AC40 was 6.65 µM.

Consider `COc1ccc(Br)cc1C(=O)Nc1cccc(C)c1`, for which the AC40 is 9.88 µM.

Consider `COc1ccc2nc3ccccc3nc2c1NC(=O)c1ccc(Cl)cc1Cl`, for which the AC40 was 5.1 µM.

As to `CN(C)CCOc1ccc(-c2c(-c3ccsc3)sc3ccccc23)cc1`, the AC40 was 5.7 µM.

Regarding `COc1cc(CN2CCc3ccccc3C2)ccc1O`, the AC40 is 13.6 µM.

As to `Cc1cc(C)c2c(C)nn(C3CCCCC3)c2n1`, the AC40 was > 35 µM (inactive).

Turning to `CN(C)C(=O)COC(=O)c1cccnc1Nc1ccccc1F`, the AC40 is 29.5 µM.

`CCCCc1c(-c2cccc(OC)c2)ncn1CCc1ccccc1OC`: the AC40 was 7.6 µM.

Consider `O=C(c1cccs1)c1coc2ccc(O)c(CN3CCOCC3)c12`, for which the AC40 is > 35 µM (inactive).

Turning to `O=c1c2cc(F)ccc2sn1-c1ccccc1Cl`, the AC40 is 1.35 µM.

In the case of `CCOC(=O)[C@]12Cc3cc(OC)ccc3[C@H]1N(C1CCCCC1)C(=O)c1cc(OC)ccc12`, the AC40 was 11.7 µM.

On to `CCCCc1c(-c2ccccc2OC)ncn1C(C)c1ccccc1` (centres undefined), for which the AC40 is 12.5 µM.

Consider `COC(=O)c1ccc2c(c1)NC(=O)C(N(CC(C)C)CC(C)C)S2` (centres undefined), for which the AC40 was 2.51 µM.

As to `Cc1ccc(NC(=O)c2oc3ccc(S(=O)(=O)N4CCOCC4)cc3c2C)cc1C`, the AC40 is 7.57 µM.

As for `O=C(Cn1c(COc2ccccc2)nc2ccccc21)Nc1cc(Cl)cc(Cl)c1`, the AC40 is 5.2 µM.

As for `NC(c1csc(NC(=O)Nc2cccc(C(F)(F)F)c2)n1)C1CCCCC1` (centres undefined), the AC40 was 6.68 µM.

On to `CC(C)C[C@H](NC(=O)c1nc[nH]c1C(=O)NC1CCN(C(=O)OC(C)(C)C)CC1)C(=O)OC(C)(C)C`, for which the AC40 was 26.4 µM.

With `COc1ccnc(N2CCN(c3cccc(C(F)(F)F)c3)CC2)c1C#N`, the AC40 is 10.1 µM.

Take `CC(C)(C(=O)N1CCC1(C)C(=O)NS(=O)(=O)c1cccc(Cl)c1)c1ccccc1` (centres undefined): the AC40 was 3.65 µM.

Turning to `O=C(OCC12CC3CC(CC(C3)C1)C2)c1ccc(NCc2cc(O)ccc2O)cc1`, the AC40 was 9.2 µM.

As for `Cc1nn(-c2ccccc2)c2nc(C(F)F)cc(C(F)F)c12`, the AC40 was 30.4 µM.

In the case of `O=C(NC(=S)Nc1ccc(NC(=O)c2cccs2)cc1)c1cc2ccccc2o1`, the AC40 is 10.9 µM.

Turning to `Cc1ccc(-c2ccc(C3[C@@H]4CN(C(=O)Nc5ccc(C(F)(F)F)cc5)C[C@H]3N4)cc2)cc1` (some centres undefined), the AC40 is 1.17 µM and 2.2 µM.

For the molecule `O=C(N/N=C/c1ccc(Cl)cc1Cl)Nc1ccccc1`, the AC40 is 7.4 µM.

Take `CCCNC(=O)c1nnsc1S(=O)(=O)c1ccc(Cl)cc1`: the AC40 was 1.15 µM.

Regarding `Cc1cc2c(cc1C)CSC(c1c(O)ccc3ccccc13)SC2`, the AC40 is 17.9 µM.

Regarding `O=C(NN=Cc1ccccc1Cl)c1cccc2ccccc12`, the AC40 was 7.18 µM.

As for `COc1ccc(OC)c(NC(=O)c2cc3c(Cl)nc4ccccc4c3s2)c1`, the AC40 was 6.97 µM.

With `O=C(NCCC1=CCCCC1)C(=O)NCC(c1ccco1)N1CCN(c2ccccc2)CC1` (centres undefined), the AC40 was 3.54 µM.

As to `COc1ccc(-n2sc3ccccc3c2=O)cc1`, the AC40 is 0.759 µM.

Turning to `O=C(Nc1nnc(-c2ccccc2SCc2ccccc2F)s1)Nc1ccccc1F`, the AC40 was 12.8 µM.

On to `NC1=NC[C@H](c2ccccc2)N1CCCCC1CCCCC1`, for which the AC40 is 17.4 µM.

Regarding `OC1(C#Cc2c(-c3ccsc3)sc3ccccc23)CCCCC1`, the AC40 is 13.3 µM.

On to `Cc1cc(C)nc(Nc2n[nH]c(COc3ccc4ccccc4c3)n2)n1`, for which the AC40 is 6.18 µM.

With `Cc1nc(NC(=O)c2cccc(-c3cc4ccccc4oc3=O)c2)ccc1Br`, the AC40 is 7.19 µM.

Take `CN(C)CCCNc1cc(C(C)(C)C)nc2c(-c3ccc(Cl)cc3)cnn12`: the AC40 is 3.6 µM.

With `C/C=C/c1ccc(C2[C@@H]3CN(C(=O)Nc4ccc(C(F)(F)F)cc4)C[C@H]2N3)cc1` (some centres undefined), the AC40 is 5.83 µM.

With `CCCCc1ccc(NC(=O)COc2ccc(C(=O)Nc3ccccc3OCC)cc2)cc1`, the AC40 is 1.3 µM.

Take `Cc1cccc(Cn2ccc(-c3ccc(Cl)cc3)c(C#N)c2=O)c1`: the AC40 is 3.46 µM.

Regarding `Cc1ccccc1-c1ccc(C2[C@@H]3CN(S(=O)(=O)c4ccccc4C)C[C@H]2N3)cc1` (some centres undefined), the AC40 was 5.8 µM.

`COC(=O)C1=C(C)N(Cc2cccc(C(F)(F)F)c2)C(=NCc2ccc3c(c2)OCO3)NC1CCc1ccccc1` (centres undefined): the AC40 is 6.1 µM.

As to `COc1cc(CNCCc2ccccc2)cc(Cl)c1OCc1ccccc1`, the AC40 is 7.96 µM.

In the case of `COc1ccc(C(CCNCc2ccc(OC(C)C)cc2)C(C)C)cc1` (centres undefined), the AC40 was 12.3 µM.

Regarding `Fc1cccc(CN2C[C@@H]3N[C@H](C2)[C@@H]3c2ccc(-c3cccc(F)c3)cc2)c1`, the AC40 is 4.89 µM.

Regarding `NC[C@H](Cc1ccccc1)NCCc1cc(C(F)(F)F)cc(C(F)(F)F)c1`, the AC40 is 9.24 µM.

As for `CN(C)CCNC(=O)c1cccc(-c2cc(NC=O)c3ncc(-c4cccc(C(F)(F)F)c4)n3c2)c1`, the AC40 was 13.7 µM.

`Clc1ccc(-c2ccnc(Oc3cc(Cl)ccc3Cl)n2)cc1`: the AC40 is 6.7 µM.

On to `Fc1ccccc1/C=N/n1c(C2CCCCC2)n[nH]c1=S`, for which the AC40 was 11.8 µM.

For `O=C(COc1ccccc1)Nc1sc2c(c1C(=O)NCc1cccnc1)CCCC2`, the AC40 was 6.97 µM.
